Results from US6818663B2, “Diaminothiazoles” (Hoffmann-La Roches, priority 2002, dated 2004).

What was measured:
human cyclin B-CDK1 = human cyclin B-CDK1 (Homo sapiens, UniProt P06493); assay: FlashPlate kinase assay, cyclin B-CDK1, Rb substrate; format: biochemical; details: recombinant cyclin B-CDK1, Rb phosphorylation, 1 μM ATP
Summary of the method: (§1)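 Recombinant human cyclin–CDK complexes, co-expressed in insect cells, phosphorylated His-tagged Rb (aa 386-928) coated on FlashPlates at 10 μg/ml. Reaction used 1 μM ATP plus 4 nM ^33P-ATP and 20 mM MgCl2 for 30 min at room temperature. % inhibition came from scintillation counts against no-enzyme and no-compound wells, and IC50 was the concentration halving radiolabel incorporation.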

human cyclin E-CDK2 = human cyclin E-CDK2 (Homo sapiens, UniProt P24941); assay: FlashPlate kinase assay, cyclin E-CDK2, Rb substrate; format: biochemical; details: recombinant cyclin E-CDK2, Rb phosphorylation, 1 μM ATP
Summary of the method: as §1

human cyclin D1-CDK4 = human cyclin D1-CDK4 (Homo sapiens, UniProt P11802); assay: FlashPlate kinase assay, cyclin D1-CDK4, Rb substrate; format: biochemical; details: recombinant cyclin D1-CDK4, Rb phosphorylation, 1 μM ATP
Summary of the method: as §1

[1] = system: HCT116, a colorectal carcinoma cell line; assay: Tetrazolium dye proliferation assay (MTT assay); format: cell-based; details: Homo sapiens, HCT-116, HCT116 cells, inhibition of cell proliferation
Procedure: Proliferation was evaluated by the tetrazolium dye assay according to the procedure of Denizot and Lang (Denizot, F. and Lang, R. J Immunol Methods 1986, 89, 271-277). The cell line used was HCT116, a colorectal carcinoma cell line obtained from the American Type Cell Culture Collection (ATCC; Rockville, Md.). The cells were grown in McCoy's 5A medium supplemented with 10% FCS and L-glutamine.
Cells were plated at the appropriate seeding density to give logarithmic growth over the course of the assay in a 96-well tissue culture plate. Plates were incubated overnight at 37° C. in a humidified incubator with 5% CO2. The next day, test compounds were serially diluted to four times the final concentration in the appropriate medium containing 1.2% DMSO. One-fourth final volume of each dilution was added in duplicate to the plates containing cells. The same volume of 1.2% DMSO in medium was added to a row of “control wells” such that the final concentration of DMSO in each well was 0.3%. Wells to which no cells were added served as the “blank.” Wells to which no inhibitor was added served as “no inhibitor control.” The plates were) returned to the incubator, and at set time points (determined by their growth curves) plates were analyzed as described below.
3-(4,5-dimethylthiazole-2-yl)-2,5-diphenyl-2H-tetrazolium bromide (thiazolyl blue; MTT; Sigma) was added to each well to yield a final concentration of 1 mg/ml. Plates were returned to the incubator for 2.5-3 hours at 37° C. The MTT-containing medium was removed and the resulting formazan metabolite was solubilized in 100% ethanol with shaking for 15 minutes at room temperature. Absorbance readings were taken in a microtiter plate reader (Dynatech and Molecular Devices plate readers were used interchangeably) at a wavelength of 570 nm with a 650 nm reference. Percent inhibition (% INH) is calculated by subtracting the absorbance of the blank well from all wells, then subtracting the ratio of the average absorbance of each test duplicate (SAVE) by the average of the controls (CAVE) from 1.00. The final number is then multiplied by 100 (% INH=(1.00−SAVE/CAVE)×100). The concentration at which 50% inhibition of cell proliferation is obtained (the IC50) is determined from the linear regression of a plot of the logarithm of the concentration versus percent inhibition.

Sequence of human cyclin B-CDK1 (P06493 whole entry, the tested form may be a part): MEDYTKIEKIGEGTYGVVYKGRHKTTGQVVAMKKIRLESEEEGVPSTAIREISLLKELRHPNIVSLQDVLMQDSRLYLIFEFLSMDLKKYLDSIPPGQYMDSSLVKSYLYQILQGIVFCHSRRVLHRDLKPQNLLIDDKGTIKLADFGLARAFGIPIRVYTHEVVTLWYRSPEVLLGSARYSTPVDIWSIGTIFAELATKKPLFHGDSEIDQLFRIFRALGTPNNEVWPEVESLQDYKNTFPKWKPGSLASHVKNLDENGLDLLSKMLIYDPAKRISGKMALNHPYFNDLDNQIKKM
Sequence of human cyclin B-CDK1 (P14635 whole entry partner, the tested form may be a part): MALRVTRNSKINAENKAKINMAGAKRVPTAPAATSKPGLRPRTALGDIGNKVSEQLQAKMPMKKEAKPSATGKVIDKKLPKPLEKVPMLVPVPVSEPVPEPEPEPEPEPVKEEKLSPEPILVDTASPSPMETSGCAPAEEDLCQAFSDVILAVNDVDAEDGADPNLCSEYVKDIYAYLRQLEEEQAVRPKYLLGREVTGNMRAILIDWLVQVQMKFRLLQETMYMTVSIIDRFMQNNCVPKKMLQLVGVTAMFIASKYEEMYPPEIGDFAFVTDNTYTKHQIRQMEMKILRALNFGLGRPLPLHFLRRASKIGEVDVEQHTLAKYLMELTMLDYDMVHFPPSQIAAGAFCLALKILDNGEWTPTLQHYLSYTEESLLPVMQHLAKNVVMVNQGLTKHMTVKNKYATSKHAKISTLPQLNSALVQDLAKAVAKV
Sequence of human cyclin D1-CDK4 (P11802 whole entry): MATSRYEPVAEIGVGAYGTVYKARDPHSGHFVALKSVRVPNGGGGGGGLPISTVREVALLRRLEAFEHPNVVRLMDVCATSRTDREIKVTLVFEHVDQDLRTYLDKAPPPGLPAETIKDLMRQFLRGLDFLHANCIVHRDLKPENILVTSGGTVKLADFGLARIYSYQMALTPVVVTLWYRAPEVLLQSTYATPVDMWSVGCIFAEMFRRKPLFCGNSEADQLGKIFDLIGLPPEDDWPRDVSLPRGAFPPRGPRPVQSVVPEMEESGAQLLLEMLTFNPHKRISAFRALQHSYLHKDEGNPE
Sequence of human cyclin D1-CDK4 (P24385 whole entry partner): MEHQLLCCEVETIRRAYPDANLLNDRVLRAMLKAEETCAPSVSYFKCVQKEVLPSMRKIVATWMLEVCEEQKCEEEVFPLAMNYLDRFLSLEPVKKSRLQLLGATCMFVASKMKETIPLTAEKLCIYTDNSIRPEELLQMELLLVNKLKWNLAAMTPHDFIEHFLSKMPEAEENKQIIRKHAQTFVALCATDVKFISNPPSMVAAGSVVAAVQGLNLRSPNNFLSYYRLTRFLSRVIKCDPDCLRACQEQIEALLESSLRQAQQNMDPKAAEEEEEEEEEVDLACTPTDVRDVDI

Row | SMILES | IC50 (human cyclin B-CDK1) | IC50 (human cyclin E-CDK2) | IC50 (human cyclin D1-CDK4) | IC50 [1]
1 | C[C@H](COc1ccc(Nc2nc(N)c(C(=O)c3cccc(C4CC4)c3)s2)cc1)N1CCCC1 [Example 68, (R)-[4-Amino-2-[4-(2-pyrrolidin-1-yl-propoxy)-phenylamino]-thiazol-5-yl]-(3-cyclopropyl-phenyl)-methanone] | 2070 nM | 4540 nM | 51 nM | 1210 nM
2 | CN(C)CCOc1ccc(Nc2nc(N)c(C(=O)c3cccc(C4CC4)c3)s2)cc1 [Example 69, [4-Amino-2-[4-(2-dimethylamino-ethoxy)-phenylamino]-thiazol-5-yl]-(3-cyclopropyl-phenyl)-methanone] | 1780 nM | 2890 nM | 40 nM | 1050 nM
3 | Nc1nc(Nc2ccc(OCCN3CCCC3)cc2)sc1C(=O)c1cccc(C2CC2)c1 [Example 72, [4-Amino-2-[4-(2-pyrrolidin-1-yl-ethoxy)-phenylamino]-thiazol-5-yl]-(3-cyclopropyl-phenyl)-methanone] | 1980 nM | 1180 nM | 37 nM | 1380 nM
4 | CCc1cccc(C(=O)c2sc(Nc3ccc(OC4CCCN(CC)C4)cc3)nc2N)c1 (centres unmarked) [Example 79, [4-Amino-2-[4-(1-ethyl-piperidin-3-yloxy)-phenylamino]-thiazol-5-yl]-(3-ethyl-phenyl)-methanone] | 1080 nM | 1170 nM | 23 nM | 1470 nM
5 | CCc1cccc(C(=O)c2sc(Nc3ccc(OC4CCN(CC)C4)cc3)nc2N)c1 (centres unmarked) [Example 84, [4-Amino-2-[4-(1-ethyl-pyrrolidin-3-yloxy)-phenylamino]-thiazol-5-yl]-(3-ethyl-phenyl)-methanone] | 655 nM | 278 nM | 46 nM | 1510 nM
6 | CCCc1cc(C(=O)c2sc(Nc3ccc(OC4CCCN(CC)C4)cc3)nc2N)ccc1O (centres unmarked) [Example 88, [4-Amino-2-[4-(1-ethyl-piperidin-3-yloxy)-phenylamino]-thiazol-5-yl]-(4-hydroxy-3-propyl-phenyl)-methanone; Compound With Acetic Acid] | 241 nM | 234 nM | 39 nM | 280 nM
7 | CCc1cccc(C(=O)c2sc(Nc3ccc(OC4CCNC4)cc3)nc2N)c1 (centres unmarked) [Example 92, [4-Amino-2-[4-(pyrrolidin-3-yloxy)-phenylamino]-thiazol-5-yl)-(3-ethyl-phenyl)-methanone; Compound With Acetic Acid] | 538 nM | 495 nM | 51 nM | 1570 nM
8 | CCNCCOc1ccc(Nc2nc(N)c(C(=O)c3cccc(C)c3)s2)cc1 [Example 100, [4-Amino-2-(4-(2-ethylamino-ethoxy)-phenylamino]-thiazol-5-yl]-m-tolyl-methanone; Compound With Acetic Acid] | 731 nM | 1230 nM | 43 nM | 880 nM
9 | CCNCCOc1ccc(Nc2nc(N)c(C(=O)c3ccc(C)c(F)c3)s2)cc1 [Example 103, [4-Amino-2-[4-(2-ethylamino-ethoxy)-phenylamino]-thiazol-5-yl]-(3-fluoro-4-methyl-phenyl)-methanone; Compound With Acetic Acid] | 432 nM | 1760 nM | 41 nM | 1430 nM

The remaining compounds from weak to strong by IC50 (human cyclin B-CDK1), led by results:

Row | IC50 (human cyclin B-CDK1) | IC50 (human cyclin E-CDK2) | IC50 (human cyclin D1-CDK4) | IC50 [1] | SMILES
10 | 3860 nM | 2110 nM | 39 nM | 2360 nM | CN(C)C(C)(C)COc1ccc(Nc2nc(N)c(C(=O)c3cccc(C4CC4)c3)s2)cc1 [Example 71, [4-Amino-2-[4-(2-dimethylamino-2-methyl-propoxy)-phenylamino]-thiazol-5-yl]-(3-cyclopropyl-phenyl)-methanone]
11 | 2960 nM | 3140 nM | 38 nM | 1930 nM | C[C@H](COc1ccc(Nc2nc(N)c(C(=O)c3cccc(C4CC4)c3)s2)cc1)N(C)C [Example 70, (R)-[4-Amino-2-[4-(2-dimethylamino-propoxy)-phenylamino]-thiazol-5-yl]-(3-cyclopropyl-phenyl)-methanone]
12 | 1840 nM | 2280 nM | 19 nM | 1720 nM | CCN1CCCC(Oc2ccc(Nc3nc(N)c(C(=O)c4cccc(C5CC5)c4)s3)cc2)C1 (centres unmarked) [Example 80, [4-Amino-2-[4-(1-ethyl-piperidin-3-yloxy)-phenylamino]-thiazol-5-yl]-(3-cyclopropyl-phenyl)-methanone]
13 | 1080 nM | 887 nM | 51 nM | 2010 nM | CCN1CCC(Oc2ccc(Nc3nc(N)c(C(=O)c4cccc(C5CC5)c4)s3)cc2)C1 (centres unmarked) [Example 85, [4-Amino-2-[4-(1-ethyl-pyrrolidin-3-yloxy)-phenylamino]-thiazol-5-yl]-(3-cyclopropyl-phenyl)-methanone]
14 | 980 nM | 499 nM | 49 nM | 1560 nM | CCN1CCC(Oc2ccc(Nc3nc(N)c(C(=O)c4cccc(C)c4)s3)cc2)C1 (centres unmarked) [Example 83, [4-Amino-2-[4-(1-ethyl-pyrrolidin-3-yloxy)-phenylamino]-thiazol-5-yl]-m-tolyl-methanone]
15 | 883 nM | 1690 nM | 26 nM | 738 nM | CCNCCOc1ccc(Nc2nc(N)c(C(=O)c3cccc(C4CC4)c3)s2)cc1 [Example 102, [4-Amino-2-[4-(2-ethylamino-ethoxy)-phenylamino]-thiazol-5-yl]-(3-cyclopropyl-phenyl)-methanone; Compound With Acetic Acid]
16 | 859 nM | 1200 nM | 42 nM | 2020 nM | Nc1nc(Nc2ccc(OC3CCNC3)cc2)sc1C(=O)c1cccc(C2CC2)c1 (centres unmarked) [Example 93, [4-Amino-2-[4-(pyrrolidin-3-yloxy)-phenylamino]-thiazol-5-yl]-(3-cyclopropyl-phenyl)-methanone; Compound With Acetic Acid]
17 | 806 nM | 1080 nM | 41 nM | 1510 nM | CCN1CCCC(Oc2ccc(Nc3nc(N)c(C(=O)c4cccc(C)c4)s3)cc2)C1 (centres unmarked) [Example 78, [4-Amino-2-[4-(1-ethyl-piperidin-3-yloxy)-phenylamino]-thiazol-5-yl]-m-tolyl-methanone]
18 | 668 nM | 1440 nM | 39 nM | 3290 nM | COc1ccc(C(=O)c2sc(Nc3ccc(OC4CCNC4)cc3)nc2N)cc1F (centres unmarked) [Example 96, [4-Amino-2-[4-(pyrrolidin-3-yloxy)-phenylamino]-thiazol-5-yl]-(3-fluoro-4-methoxy-phenyl)-methanone]
19 | 660 nM | 1110 nM | 21 nM | 685 nM | CCNCCOc1ccc(Nc2nc(N)c(C(=O)c3cccc(CC)c3)s2)cc1 [Example 101, [4-Amino-2-[4-(2-ethylamino-ethoxy)-phenylamino]-thiazol-5-yl]-(3-ethyl-phenyl)-methanone; Compound With Acetic Acid]
20 | 261 nM | 175 nM | 19 nM | 327 nM | CCCc1cc(C(=O)c2sc(Nc3ccc(OC4CCN(CC)C4)cc3)nc2N)ccc1O (centres unmarked) [Example 89, [4-Amino-2-[4-(1-ethyl-pyrrolidin-3-yloxy)-phenylamino]-thiazol-5-yl]-(4-hydroxy-3-propyl-phenyl)-methanone; Compound With Acetic Acid]
